Measurements taken from PubChem BioAssay (NCI).
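Compound exposure: 48 hours, 5 concentrations, 96-well plates. Abbreviation: GI50, concentration required for 50% inhibition of growth. TGI is the concentration that stops growth completely.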

Columns and labels:
Assay in all cases: NCI anticancer screen, dose series, 48 h
MALME-3M melanoma = system: MALME-3M melanoma
SF-268 CNS = system: SF-268 CNS
SF-539 CNS = system: SF-539 CNS
UACC-62 melanoma = system: UACC-62 melanoma
UO-31 renal = system: UO-31 renal
IGROV1 ovarian = system: IGROV1 ovarian
NCI-H226 lung = system: NCI-H226 lung
SNB-19 CNS = system: SNB-19 CNS
MDA-MB-468 breast = system: MDA-MB-468 breast
COLO 205 colon = system: COLO 205 colon
HCC-2998 colon = system: HCC-2998 colon
SNB-75 CNS = system: SNB-75 CNS
EKVX NSCLC = system: EKVX NSCLC
SF-295 CNS = system: SF-295 CNS
NCI-H460 lung = system: NCI-H460 lung
BT-549 breast = system: BT-549 breast
RPMI-8226 leukemia = system: RPMI-8226 leukemia
SK-OV-3 ovarian = system: SK-OV-3 ovarian
HOP-62 NSCLC = system: HOP-62 NSCLC
MOLT-4 leukemia = system: MOLT-4 leukemia
OVCAR-3 ovarian = system: OVCAR-3 ovarian
OVCAR-5 ovarian = system: OVCAR-5 ovarian
CAKI-1 renal = system: CAKI-1 renal
NCI/ADR-RES ovarian = system: NCI/ADR-RES ovarian
OVCAR-4 ovarian = system: OVCAR-4 ovarian
LOX IMVI melanoma = system: LOX IMVI melanoma
SW-620 colon = system: SW-620 colon
NCI-H522 lung = system: NCI-H522 lung
HOP-92 NSCLC = system: HOP-92 NSCLC
UACC-257 melanoma = system: UACC-257 melanoma
HT29 colon = system: HT29 colon
NCI-H23 lung = system: NCI-H23 lung
MDA-MB-231 breast = system: MDA-MB-231 breast
HL-60(TB) leukemia = system: HL-60(TB) leukemia
786-0 renal = system: 786-0 renal
K-562 leukemia = system: K-562 leukemia
A549 NSCLC = system: A549 NSCLC
DU-145 prostate = system: DU-145 prostate
A498 renal = system: A498 renal
OVCAR-8 ovarian = system: OVCAR-8 ovarian
M14 melanoma = system: M14 melanoma
T-47D breast = system: T-47D breast
HCT-116 colon = system: HCT-116 colon
TK-10 renal = system: TK-10 renal
SR leukemia = system: SR leukemia
MCF7 breast = system: MCF7 breast
SK-MEL-2 melanoma = system: SK-MEL-2 melanoma
HS 578T breast = system: HS 578T breast
SK-MEL-5 melanoma = system: SK-MEL-5 melanoma
SK-MEL-28 melanoma = system: SK-MEL-28 melanoma
SN12C renal = system: SN12C renal
HCT-15 colon = system: HCT-15 colon
CCRF-CEM leukemia = system: CCRF-CEM leukemia
ACHN renal = system: ACHN renal
KM12 colon = system: KM12 colon
U251 CNS = system: U251 CNS
MDA-MB-435 = system: MDA-MB-435
RXF 393 renal = system: RXF 393 renal
PC-3 prostate = system: PC-3 prostate

SMILES: CC(=O)Nc1cccc(-c2nc3cc(-c4ccc(O)cc4)ccc3n2C)c1
- GI50 (MALME-3M melanoma): 5.01 µM
- TGI (MALME-3M melanoma): 18.6 µM
- GI50 (SF-268 CNS): 17.7 µM
- TGI (SF-268 CNS): > 100 µM
- GI50 (SF-539 CNS): 16.1 µM
- TGI (SF-539 CNS): 62.8 µM
- GI50 (UACC-62 melanoma): 7.42 µM
- TGI (UACC-62 melanoma): 24.9 µM
- GI50 (UO-31 renal): 10.8 µM
- TGI (UO-31 renal): 31.8 µM
- GI50 (IGROV1 ovarian): 14.4 µM
- TGI (IGROV1 ovarian): 46.6 µM
- GI50 (NCI-H226 lung): 7.76 µM
- TGI (NCI-H226 lung): 51.7 µM
- GI50 (SNB-19 CNS): 27.2 µM
- TGI (SNB-19 CNS): > 100 µM
- GI50 (MDA-MB-468 breast): 1.83 µM
- TGI (MDA-MB-468 breast): 7.12 µM
- GI50 (COLO 205 colon): 17.3 µM
- TGI (COLO 205 colon): 34.2 µM
- GI50 (HCC-2998 colon): 17.1 µM
- TGI (HCC-2998 colon): 74 µM
- GI50 (SNB-75 CNS): 9.43 µM
- TGI (SNB-75 CNS): 46.3 µM
- GI50 (EKVX NSCLC): 13.8 µM
- TGI (EKVX NSCLC): 51 µM
- GI50 (SF-295 CNS): 10.1 µM
- TGI (SF-295 CNS): 36.2 µM
- GI50 (NCI-H460 lung): 11.6 µM
- TGI (NCI-H460 lung): 36.4 µM
- GI50 (BT-549 breast): 5.07 µM
- TGI (BT-549 breast): 17.7 µM
- GI50 (RPMI-8226 leukemia): 4.7 µM
- TGI (RPMI-8226 leukemia): 23.8 µM
- GI50 (SK-OV-3 ovarian): 25.8 µM
- TGI (SK-OV-3 ovarian): 96.5 µM
- GI50 (HOP-62 NSCLC): 28.1 µM
- TGI (HOP-62 NSCLC): 65.4 µM
- GI50 (MOLT-4 leukemia): 4.6 µM
- TGI (MOLT-4 leukemia): 29.5 µM
- GI50 (OVCAR-3 ovarian): 16.2 µM
- TGI (OVCAR-3 ovarian): 63.5 µM
- GI50 (OVCAR-5 ovarian): 25.8 µM
- TGI (OVCAR-5 ovarian): 93.5 µM
- GI50 (CAKI-1 renal): 11.5 µM
- TGI (CAKI-1 renal): 49.2 µM
- GI50 (NCI/ADR-RES ovarian): 21 µM
- TGI (NCI/ADR-RES ovarian): 63.5 µM
- GI50 (OVCAR-4 ovarian): 3.64 µM
- TGI (OVCAR-4 ovarian): 27.2 µM
- GI50 (LOX IMVI melanoma): 14.3 µM
- TGI (LOX IMVI melanoma): 31.7 µM
- GI50 (SW-620 colon): 16.8 µM
- TGI (SW-620 colon): 42.9 µM
- GI50 (NCI-H522 lung): 5.16 µM
- TGI (NCI-H522 lung): 20.7 µM
- GI50 (HOP-92 NSCLC): 11.7 µM
- TGI (HOP-92 NSCLC): > 100 µM
- GI50 (UACC-257 melanoma): 3.76 µM
- TGI (UACC-257 melanoma): 15.5 µM
- GI50 (HT29 colon): 24 µM
- TGI (HT29 colon): > 100 µM
- GI50 (NCI-H23 lung): 10.6 µM
- TGI (NCI-H23 lung): 31 µM
- GI50 (MDA-MB-231 breast): 23.7 µM
- TGI (MDA-MB-231 breast): > 100 µM
- GI50 (HL-60(TB) leukemia): 10.6 µM
- TGI (HL-60(TB) leukemia): 39.7 µM
- GI50 (786-0 renal): 28.2 µM
- TGI (786-0 renal): > 100 µM
- GI50 (K-562 leukemia): 8.91 µM
- TGI (K-562 leukemia): > 100 µM
- GI50 (A549 NSCLC): 12.1 µM
- TGI (A549 NSCLC): 60.1 µM
- GI50 (DU-145 prostate): 16.6 µM
- TGI (DU-145 prostate): 65.3 µM
- GI50 (A498 renal): 19.2 µM
- TGI (A498 renal): 67.6 µM
- GI50 (OVCAR-8 ovarian): 10.8 µM
- TGI (OVCAR-8 ovarian): 26.9 µM
- GI50 (M14 melanoma): 12.9 µM
- TGI (M14 melanoma): 26.8 µM
- GI50 (T-47D breast): 2.91 µM
- TGI (T-47D breast): 11.9 µM
- GI50 (HCT-116 colon): 15.1 µM
- TGI (HCT-116 colon): 50.9 µM
- GI50 (TK-10 renal): 19.4 µM
- TGI (TK-10 renal): 81.5 µM
- GI50 (SR leukemia): 12.3 µM
- TGI (SR leukemia): > 100 µM
- GI50 (MCF7 breast): 4.38 µM
- TGI (MCF7 breast): 22.2 µM
- GI50 (SK-MEL-2 melanoma): 8.73 µM
- TGI (SK-MEL-2 melanoma): 26.1 µM
- GI50 (HS 578T breast): 19.7 µM
- TGI (HS 578T breast): > 100 µM
- GI50 (SK-MEL-5 melanoma): 3.24 µM
- TGI (SK-MEL-5 melanoma): 11.6 µM
- GI50 (SK-MEL-28 melanoma): 11.4 µM
- TGI (SK-MEL-28 melanoma): 29.6 µM
- GI50 (SN12C renal): 17.8 µM
- TGI (SN12C renal): > 100 µM
- GI50 (HCT-15 colon): 18.8 µM
- TGI (HCT-15 colon): 68.8 µM
- GI50 (CCRF-CEM leukemia): 6.06 µM
- TGI (CCRF-CEM leukemia): 50 µM
- GI50 (ACHN renal): 5.17 µM
- TGI (ACHN renal): 47.7 µM
- GI50 (KM12 colon): 12.8 µM
- TGI (KM12 colon): 29.7 µM
- GI50 (U251 CNS): 18.3 µM
- TGI (U251 CNS): > 100 µM
- GI50 (MDA-MB-435): 5.29 µM
- TGI (MDA-MB-435): 19.3 µM
- GI50 (RXF 393 renal): 11.4 µM
- TGI (RXF 393 renal): 39.5 µM
- GI50 (PC-3 prostate): 13.7 µM
- TGI (PC-3 prostate): 65 µM
